The test system of one data set is Magel2 KO neonates. Kind of data set: Injection of oxytocin or vasopressin in Magel2 KO neonates: rescue of feeding and survival. The class given is in vivo, mouse. How it is done:
(§1) Three to 5 hours after delivery, wild type pups or pups issued from a cross between an heterozygote (+/−) male with wild type females were temporally removed (10 min) from their mother, weighted and given a single s.c. (in the ventral region at the level of floating ribs) injection (20 μl) of isotonic saline or 2 μg oxytocin (Phoenix Pharmaceuticals. Inc., Catalog No. 051-01) dissolved in isotonic saline (20 μl). […] Following the same protocol, we injected vasopressin (Phoenix Pharmaceuticals. Inc., Catalog No. 065-07) at different doses. At P2, pups were scarified to be genotyped.
The results obtained with the injection of SSR 126768A OTA let us think that we might restore a normal feeding behaviour in Magel2 KO newborns with an OT injection just after birth. Early neonatal manipulation of OT was reported in the literature without alterations of the postnatal development (Cushing, B. S., et Al., 2003; Yamamoto, Y., et al., 2004; Saito, O., et Al., 2007). Initially, 28 wild type newborns were injected with an isotonic saline (20 μl) and 4 of them died at P1. Another cohort of 28 wild type newborns, […] on hypothalamic nuclei one hour after the injection (Cushing, B. S., et Al., 2003; Yamamoto, Y., et al., 2004). We then decided to inject 2 μg of OT in Magel2 KO and wild type newborns, 3 to 5 hours after birth, the time when wild type newborns started to suckle but not the mutant neonates. […] The level of lethality is similar after an injection of saline solution (4/28 dead pups) or oxytocin (3/28 dead pups) and is in the range of lethality normally observed in wild type cohorts. In a second step, ten litters including a total of 37 wild type and 40 Magel2 KO neonates, were injected with an oxytocin solution. At P2, we observed that 95% (35/37) of wild type and 93% (37/40) of Magel2 mutant newborns survived with milk previously detected in their stomach at P1. In parallel, we controlled that the rescue of Magel2 KO neonates was specifically due to the oxytocin injection and not to the injection stress and/or handling of neonates. […]

Data set [1] has as its system adult patients with PWS. Kind of data set: Tolerance in the clinical pilot study. The settings on record: single intranasal 24 UI. The data set is classed as in vivo, human. The text has this:
The inventors designed a double-blind randomised, placebo-controlled pilot study (ClinicalTrials.gov Identifier: NCT01038570) to be conducted in a dedicated PWS centre, where patients are regularly admitted for one month and live in a controlled environment. Patients know they have no free access to food but no doubt about the time and the content of meals. For each stay, 16 patients with PWS are admitted and take part in daily planned occupational and physical group activities. They also receive medical care as needed and psychological support. The 24 patients included in this study (16 females, 8 males, median age 28.5 years [18.7 to 43.6], median BMI 43 kg/m2 [19.4 to 67.4]) were stratified on gender and IQ (median IQ=51 [45 to 75]). […] Patients as well as parents or caregivers gave their written consent prior to entering the study. Exclusion criteria were an abnormal ECG and other severe cardiovascular problems. Patients were well known to the team. Each pair of patients of the same gender and same IQ range was evaluated the same day. The two patients of the pair received either OT or placebo in a double-blind randomisation. Patients were included in the study over the course of three series of stays.
Each patient received a single intranasal administration of either placebo (saline solution) or OT (Syntocinon®/-Spray, Novartis, Basel, Switzerland) with three puffs per nostril (24 UI). The dose of 24 UI is the most frequently reported in the literature. […] This nurse knew neither the patients nor the study.

Data set [2] concerns adult patients with PWS. Kind of data set: Eating behaviour scoring after intranasal administration. The data set is classed as in vivo, human. The text has this:
The behaviour of the patients was carefully monitored, scored daily by the team psychologist, and documented on the case report form for the two days before drug administration, on the half-day following administration (early effects) and over the two days following drug administration (late effects). Both the staff and the rater were unaware of treatment status. There are currently no validated grids that evaluate the specific behavioural features of patients with PWS that they particularly wanted to study, i.e. tendencies towards isolation, sadness, and depression, self-depreciation, self-mutilation, conflicts with others, disruptive behaviour, interest in friendship, interest in love affairs, and trust of others. […] The patients were well known to the team but the mean behavior status was re-evaluated during the first week of admission using the same grid. The behavioural features of the patients were scored as unchanged, moderately changed, or severely changed. […] Eating behaviour was also scored using three categories: usual, better than usual or worse, based on the analysis of each meal. The following were evaluated: amount of food intake per meal, amount of food requested per meal, duration of meal, and behaviour before/during/after the meal. To evaluate the early effect of OT, we analysed only the first meal after drug administration.

The next data set deals with wild type newborns. Description: Injection of oxytocin in wild type neonates: lethality and survival. The data set is classed as in vivo, mouse. How it is done:
as §1
The results obtained with the injection of SSR 126768A OTA let us think that we might restore a normal feeding behaviour in Magel2 KO newborns with an OT injection just after birth. Early neonatal manipulation of OT was reported in the literature without alterations of the postnatal development (Cushing, B. S., et Al., 2003; Yamamoto, Y., et al., 2004; Saito, O., et Al., 2007). Initially, 28 wild type newborns were injected with an isotonic saline (20 μl) and 4 of them died at P1. Another cohort of 28 wild type newborns, […] on hypothalamic nuclei one hour after the injection (Cushing, B. S., et Al., 2003; Yamamoto, Y., et al., 2004). […] At P2, we observed that 95% (35/37) of wild type and 93% (37/40) of Magel2 mutant newborns survived with milk previously detected in their stomach at P1. […]

Data set [3] has as its system adult patients with PWS. Kind of data set: Tests evaluating the understanding of social codes (Sally and Ann, Cartoons, RMET). The class given is in vivo, human. The settings on record: 45 minutes after intranasal 24 UI. As to the method: Forty-five minutes after the intranasal administration, three tests evaluating the understanding of social codes were administered, which lasted one hour. Conversely to the behavioural grid, there was no pre-administration evaluation. The Sally and Ann test assesses one's ability to understand simple situations by story-telling and pictures. Cartoons depicting more complex social situations designed for the evaluation of autistic children were also used (“Cartoons”, unpublished test). The “Reading the Mind in the Eyes” test (RMET) assesses the ability to read emotions from subtle affective facial expressions, especially in the eyes. A shortened test with 19 images from the 36-item revised version was chosen by the team psychologist. In these three tests, TOM is necessary to understand and analyse the social situations that are presented. Statistical analysis was performed using the Mann-Whiney test, the Wilcoxon test or the chi2 test.

We go through 1 compound from US9125862B2, “Methods for the treatment of Prader-Willi-like syndrome or non-organic failure to thrive (NOFITT) feeding disorder using an agonist of the oxytocin receptor” (Institut National de la Sante et de la Rechereche Medicale …, priority 2010, dated 2015).

For `CC[C@H](C)[C@@H]1NC(=O)[C@H](Cc2ccc(O)cc2)NC(=O)[C@@H](N)CSSC[C@@H](C(=O)N2CCC[C@H]2C(=O)N[C@@H](CC(C)C)C(=O)NCC(N)=O)NC(=O)[C@H](CC(N)=O)NC(=O)[C@H](CCC(N)=O)NC1=O` [oxytocin], the “newborns survived at P2 with milk in stomach at P1” value in the data set on Magel2 KO neonates (Magel2 mutant, 2 μg oxytocin s.c. 3 to 5 hours after birth, vehicle lethality 48.5% at P1) is reported as 93%. Further, the “rescue of the death rate due to the feeding deficit” value in the data set on Magel2 KO neonates (one single injection, 3-5 hours after birth) is on record as “efficiently rescue the death rate”. Also, in the data set with adult patients with PWS [1], the Tolerance result was “excellent”; the “adverse event during the study” value is listed as “No adverse event”; the “effect on electrocardiogram and PSA” value is “no effect”. In addition, the “scores assessing eating behaviour, OT vs placebo group” value with adult patients with PWS [2] (intranasal 24 UI) is reported as “No statistical difference”. Also, in the data set with adult patients with PWS [2] (over the two days following intranasal administration, five patients, placebo 10%), the “patients who did not feel hungry and slightly decreased their food intake” value came out at 45%. In addition, the level of lethality with wild type newborns (s.c. oxytocin 2 μg in 20 μl NaCl 0.9%, wild type pups n=28, saline 4/28) is on record as 3/28. Moreover, the “newborns survived at P2 with milk in stomach at P1” value in the data set with wild type newborns (wild type, 2 μg oxytocin s.c. 3 to 5 hours after birth) amounted to 95%. Moreover, the “patients who successfully completed the Sally and Ann test” value with adult patients with PWS [3] (OT group n=12, placebo 50%, P=0.19) is “Eighty-three”. For the same compound, the Cartoons score in the data set on adult patients with PWS [3] (OT vs placebo, P=0.56) is 3.75 (1-18). Besides, the “total RMET score” value with adult patients with PWS [3] (placebo 5.5 (1-11), P=0.18) is 7 (4-9).
